The results in this text go back to US10899738B2 (THE REGENTS OF THE UNIVERSITY OF MICHIGAN, priority 2016, dated 2021).

For this assay, the target named is menin protein (Homo sapiens (Human), UniProt O00255). As to the kind of experiment: biochemical. It is filed as binding. To be noted: FP competitive binding, menin protein 4 nM, FAM-MM2 probe 2 nM; for IC50: read-out: Menin Binding Affinity IC50. A digest of the protocol: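 Test compounds displaced FAM-MM2 (2 nM) from 4 nM menin after 30 min equilibration at room temperature in PBS buffer containing bovine γ-globulin, 4% DMSO and Triton X-100. Binding was followed by fluorescence polarization. Competition curves were fitted by nonlinear regression to give IC50 and Ki.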
Chain of menin protein (O00255 whole entry): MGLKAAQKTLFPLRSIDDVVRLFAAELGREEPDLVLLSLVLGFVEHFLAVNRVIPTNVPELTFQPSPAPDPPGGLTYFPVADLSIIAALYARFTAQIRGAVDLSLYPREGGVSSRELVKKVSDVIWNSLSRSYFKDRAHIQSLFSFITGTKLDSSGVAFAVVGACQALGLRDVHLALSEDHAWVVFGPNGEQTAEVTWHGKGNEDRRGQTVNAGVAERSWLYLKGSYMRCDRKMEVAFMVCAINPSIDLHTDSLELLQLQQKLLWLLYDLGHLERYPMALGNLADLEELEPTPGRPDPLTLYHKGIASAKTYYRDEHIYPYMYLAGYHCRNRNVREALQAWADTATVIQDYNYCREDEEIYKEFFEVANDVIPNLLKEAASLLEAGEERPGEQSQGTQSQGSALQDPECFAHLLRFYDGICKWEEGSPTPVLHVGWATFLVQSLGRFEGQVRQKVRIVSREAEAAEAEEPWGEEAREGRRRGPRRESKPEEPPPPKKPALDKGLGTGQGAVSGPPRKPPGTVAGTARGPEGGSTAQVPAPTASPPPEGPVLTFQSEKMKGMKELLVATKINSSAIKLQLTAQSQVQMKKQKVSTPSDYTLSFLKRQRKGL

As for `CNC(=O)O[C@@H]1CCC[C@H]1C(Cn1ccnc1C)(c1cccc(F)c1)C1CCN(CC2CN(c3ccc(Cl)cc3)C2)CC1` (mixture of isomers) [compound 414, rac-(1R,2S)-2-(1-(1-((1-(4-chlorophenyl)azetidin-3-yl)methyl)piperidin-4-yl)-1-(3-fluorophenyl)-2-(2-methyl-1H-imidazol-1-yl)ethyl)cyclopentyl methylcarbamate], the IC50 turned out to be 539 nM.

In the case of `O=S(=O)(c1ccc(N2CC(CN3CCC(C4(C5CCCC5)NCCc5ccccc54)CC3)C2)cc1)C1CCOCC1` (stereo not drawn) [compound 97, 1-cyclopentyl-1-(1-((1-(4-((tetrahydro-2H-pyran-4-yl)sulfonyl)phenyl)azetidin-3-yl)methyl)piperidin-4-yl)-1,2,3,4-tetrahydroisoquinoline], the half-inhibitory concentration (IC50) was 49 nM.

Regarding `CS(=O)(=O)N[C@@H]1CCC[C@H]1C(C#N)(c1ccccc1)C1CCN(CC2CN(c3ccc(S(=O)(=O)c4ccncc4)cc3)C2)CC1` (mixture of isomers) [compound 268, rac-N-((1R,2S)-2-(cyano(phenyl)(1-((1-(4-(pyridin-4-ylsulfonyl)phenyl)azetidin-3-yl)methyl)piperidin-4-yl)methyl)cyclopentyl) methanesulfonamide], the IC50 was 4700 nM.

With `CC(=O)O[C@@H]1CCC[C@H]1C(C#N)(c1ccccc1)C1CCN(CC2CN(c3ccc(C(=O)O)cc3)C2)CC1` (mixture of isomers) [compound 389, rac-4-(3-((4-(((1S,2R)-2-acetoxycyclopentyl)(cyano) (phenyl)methyl)piperidin-1-yl)methyl)azetidin-1-yl)benzoic acid], the half-maximal inhibitory concentration (IC50) worked out at 6500 nM.

As for `CC(=O)O[C@@H]1CCC[C@H]1C(C#N)(c1cccc(F)c1)C1CCN(CC2CN(c3ccc(CC(F)(F)F)cc3)C2)CC1` (mixture of isomers) [compound 420, rac-(1R,2S)-2-(cyano(3-fluorophenyl)(1-((1-(4-(2,2,2-trifluoroethyl)phenyl)azetidin-3-yl)methyl)piperidin-4-yl)methyl)cyclopentyl acetate], the IC50 is 11600 nM.

Turning to `CC(=O)O[C@H]1CCC[C@@H]1C(C#N)(c1cccc(F)c1)C1CCN(CC2CN(c3ccc(CC(F)(F)F)cc3)C2)CC1` (mixture of isomers) [compound 419, rac-(1S,2R)-2-(cyano(3-fluorophenyl)(1-((1-(4-(2,2,2-trifluoroethyl)phenyl)azetidin-3-yl)methyl)piperidin-4-yl)methyl)cyclopentyl acetate], the IC50 is 293 nM.

Consider `O=S(=O)(c1ccncc1)c1ccc(N2CC(CN3CCC(C4(C5CCCC5)CN(Cc5ccncc5)Cc5ccccc54)CC3)C2)cc1` (stereo not drawn) [compound 53, 4-cyclopentyl-2-(pyridin-4-ylmethyl)-4-(1-((1-(4-(pyridin-4-ylsulfonyl)phenyl)azetidin-3-yl)methyl)piperidin-4-yl)-1,2,3,4-tetrahydroisoquinoline], for which the IC50 was found to be 1100 nM.

Take `CC(=O)O[C@@H]1CCC[C@H]1C(C#N)(c1ccccc1)C1CCN(CC2CN(c3ccc(S(C)(=O)=O)cc3)C2)CC1` (mixture of isomers) [compound 184, rac-(1R,2S)-2-(cyano(1-((1-(4-(methylsulfonyl)phenyl)azetidin-3-yl)methyl)piperidin-4-yl)(phenyl)methyl)cyclopentyl actate]: the 50% inhibitory concentration (IC50) amounted to 2600 nM.

For `CCC(CC)C(=O)N1CCCCC1C1(C2CCN(CCCOc3ccc(C#N)cc3)CC2)CN(C)Cc2ccccc21` (stereo not drawn) [compound 301, 4-(3-(4-(4-(1-(2-ethylbutanoyl)piperidin-2-yl)-2-methyl-1,2,3,4-tetrahydroisoquinolin-4-yl)piperidin-1-yl)propoxy)benzonitrile], the half-inhibitory concentration (IC50) worked out at 34800 nM.

Turning to `N#Cc1ccc(OC2CC(N3CCC(C4(C5CCCC5)NCCc5ccccc54)CC3)C2)cc1` (single isomer, unassigned) [compound 131, 4-((1r,3r)-3-(4-(1-cyclopentyl-1,2,3,4-tetrahydroisoquinolin-1-yl)piperidin-1-yl)cyclobutoxy)benzonitrile], the IC50 was 1100 nM.

In the case of `CCC1CCCC1C(C#N)(c1ccccc1)C1CCN(CC2CN(c3ccc(S(=O)(=O)c4ccncc4)cc3)C2)CC1` (stereo not drawn) [compound 338, 2-(2-ethylcyclopentyl)-2-phenyl-2-(1-((1-(4-(pyridin-4-ylsulfonyl)phenyl)azetidin-3-yl)methyl)piperidin-4-yl)acetonitrile], the IC50 was 10200 nM.

Take `CC(=O)O[C@@H]1CCC[C@H]1C1(C2CCN(CCCOc3ccc(C#N)cc3)CC2)CN(C)Cc2ccc(F)cc21` (mixture of isomers) [compound 315, rac-(1R,2S)-2-(4-(1-(3-(4-cyanophenoxy)propyl)piperidin-4-yl)-6-fluoro-2-methyl-1,2,3,4-tetrahydroisoquinolin-4-yl)cyclopentyl acetate]: the 50% inhibitory concentration (IC50) is 131 nM.

Regarding `CC(=O)N1CCC[C@H]1C(C#N)(c1ccccc1)C1CCN(CCCOc2ccc(C#N)cc2)CC1` (stereo partly drawn) [compound 330, 4-(3-(4-(((S)-1-acetylpyrrolidin-2-yl)(cyano)(phenyl)methyl)piperidin-1-yl)propoxy)benzonitrile], the IC50 came out at 111000 nM.

Regarding `N#Cc1ccc(OCCCN2CCC(C(CO)(c3ccccc3)C3CCCC3)CC2)cc1` (stereo not drawn) [compound 37, 4-(3-(4-(1-cyclopentyl-2-hydroxy-1-phenylethyl)piperidin-1-yl)propoxy)benzonitrile], the IC50 was found to be 449 nM.

Turning to `N#Cc1ccc(OC2CC(N3CCC(C4(C5CCCC5)NCCc5ccccc54)CC3)C2)cc1` (single isomer, unassigned) [compound 130, 4-((1s,3s)-3-(4-(1-cyclopentyl-1,2,3,4-tetrahydroisoquinolin-1-yl)piperidin-1-yl)cyclobutoxy)benzonitrile], the 50% inhibitory concentration (IC50) came out at 10600 nM.

In the case of `CCO[C@@H]1CCC[C@H]1C(C#N)(c1ccccc1)C1CCN(CC2CN(c3ccc(S(C)(=O)=O)cc3)C2)CC1` (mixture of isomers) [compound 189, rac-2-((1S,2R)-2-ethoxycyclopentyl)-2-(1-((1-(4-(methylsulfonyl)phenyl)azetidin-3-yl)methyl)piperidin-4-yl)-2-phenylacetonitrile], the half-inhibitory concentration (IC50) worked out at 20500 nM.

For `c1ccc(OCCCN2CCC(C3(C4CCCC4)NCCc4ccccc43)CC2)cc1` (stereo not drawn) [compound 76, 1-cyclopentyl-1-(1-(3-phenoxypropyl)piperidin-4-yl)-1,2,3,4-tetrahydroisoquinoline], the IC50 stood at 1300 nM.

As for `N#Cc1ccc(OCCCN2CCC(C3(C4CCCC4)COCc4ccccc43)CC2)cc1` (stereo not drawn) [compound 35, 4-(3-(4-(4-cyclopentylisochroman-4-yl)piperidin-1-yl)propoxy)benzonitrile], the IC50 is 3200 nM.

Regarding `CCC(CC)CC1(C2CCN(CCCOc3ccc(C#N)cc3)CC2)NCCc2ccccc21` (stereo not drawn) [compound 252, 4-(3-(4-(1-(2-ethylbutyl)-1,2,3,4-tetrahydroisoquinolin-1-yl)piperidin-1-yl)propoxy)benzonitrile], the IC50 was determined as 1200 nM.

As to `CCS(=O)(=O)c1ccc(N2CC(CN3CCC(C4(CC(C)(C)C)NCCc5ccccc54)CC3)C2)cc1` (stereo not drawn) [compound 248, 1-(1-((1-(4-(ethylsulfonyl)phenyl)azetidin-3-yl)methyl)piperidin-4-yl)-1-neopentyl-1,2,3,4-tetrahydroisoquinoline], the IC50 was found to be 800 nM.

Consider `CNC(=O)O[C@H]1CCC[C@@H]1C(Cn1ccnc1)(c1ccccc1)C1CCN(CC2CN(c3ccc(S(=O)(=O)C4COC4)cc3)C2)CC1` (mixture of isomers) [compound 412, rac-(1S,2R)-2-(2-(1H-imidazol-1-yl)-1-(1-((1-(4-(oxetan-3-ylsulfonyl)phenyl)azetidin-3-yl)methyl)piperidin-4-yl)-1-phenylethyl)cyclopentyl methylcarbamate], for which the half-inhibitory concentration (IC50) came out at 4 nM.

As to `CNC(=O)O[C@H]1CCC[C@@H]1C(C#N)(c1ccccc1)C1CCN(CC2CN(c3ccc(C(=O)OC)cc3)C2)CC1` (mixture of isomers) [compound 373, methyl rac-4-(3-((4-(cyano((1R,2S)-2-((methylcarbamoyl)oxy)cyclopentyl)(phenyl)methyl)piperidin-1-yl)methyl)azetidin-1-yl)benzoate], the half-maximal inhibitory concentration (IC50) was determined as 112 nM.

In the case of `CNC(=O)O[C@H]1CCC[C@@H]1C(Cn1ccnc1C)(c1cccc(F)c1)C1CCN(CC2CN(c3ccc(Cl)cc3)C2)CC1` (mixture of isomers) [compound 413, rac-(1S,2R)-2-(1-(1-((1-(4-chlorophenyl)azetidin-3-yl)methyl)piperidin-4-yl)-1-(3-fluorophenyl)-2-(2-methyl-1H-imidazol-1-yl)ethyl)cyclopentyl methylcarbamate], the 50% inhibitory concentration (IC50) came out at 6 nM.

In the case of `CO[C@H]1CCC[C@@H]1C1(C2CCN(CCCOc3ccc(C(=O)O)cc3)CC2)CNCc2ccccc21` (mixture of isomers) [compound 328, rac-4-(3-(4-(4-((1R,2S)-2-methoxycyclopentyl)-1,2,3,4-tetrahydroisoquinolin-4-yl)piperidin-1-yl)propoxy)benzoic acid], the concentration for half-maximal inhibition (IC50) came to 119000 nM.

As for `CN([C@@H]1CCC[C@H]1C(C#N)(c1ccccc1)C1CCN(CC2CN(c3ccc(S(=O)(=O)C4CC4)cc3)C2)CC1)S(C)(=O)=O` (mixture of isomers) [compound 274, rac-N-((1R,2S)-2-(cyano(1-((1-(4-(cyclopropylsulfonyl)phenyl)azetidin-3-yl)methyl)piperidin-4-yl)(phenyl)methyl)cyclopentyl)-N-methanesulfonamide], the IC50 came to 19200 nM.

On to `N#Cc1ccc(OCCCN2CC(C3(C4CCCC4)NCCc4ccccc43)C2)cc1` (stereo not drawn) [compound 60, 4-(3-(3-(1-cyclopentyl-1,2,3,4-tetrahydroisoquinolin-1-yl)azetidin-1-yl)propoxy)benzonitrile], for which the “Menin Binding Affinity IC50 (μM)” value is listed as “No inhibition”.

For `COCC[C@@H]1CCC[C@H]1C(C#N)(c1ccccc1)C1CCN(CC2CN(c3ccc(S(=O)(=O)c4ccnc(C)c4)cc3)C2)CC1` (mixture of isomers) [compound 337, rac-2-((1R,2S)-2-(2-methoxyethyl)cyclopentyl)-2-(1-((1-(4-((2-methylpyridin-4-yl)sulfonyl)phenyl)azetidin-3-yl)methyl)piperidin-4-yl)-2-phenylacetonitrile], the IC50 worked out at 25800 nM.

In general, IC50 refers to the concentration that inhibits the measured activity by half.
